In ChEMBL document CHEMBL1649220, “New variant of CTX-M-type extended-spectrum beta-lactamases, CTX-M-71, with a Gly238Cys substitution in a Klebsiella pneumoniae isolate from Bulgaria” (2009):

Key:
[1] = target: Beta-lactamase AH27 CTX-M-15 (Klebsiella pneumoniae) (UniProt Q2PUH3); assay: Ratio of Kcat to Km for Klebsiella pneumoniae AH27 CTX-M-15 beta-lactamase; parameters: unit not given here
[2] = target: T1, Extended spectrum beta-lactamase CTX-M-71 (Klebsiella pneumoniae) (UniProt C8YUV9); assay: Ratio of Kcat to Km for Klebsiella pneumoniae AH24-270 CTX-M-71 beta-lactamase; parameters: unit not given here
T1 sequence (whole entry): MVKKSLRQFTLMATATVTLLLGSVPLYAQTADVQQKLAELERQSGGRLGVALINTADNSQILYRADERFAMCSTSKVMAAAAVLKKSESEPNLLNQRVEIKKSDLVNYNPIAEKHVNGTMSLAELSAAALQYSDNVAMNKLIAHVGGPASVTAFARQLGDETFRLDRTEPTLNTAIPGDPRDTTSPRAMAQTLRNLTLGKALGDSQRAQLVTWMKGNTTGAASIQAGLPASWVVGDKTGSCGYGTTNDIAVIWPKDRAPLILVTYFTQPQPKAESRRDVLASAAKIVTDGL

| Structure (SMILES) | Ratio [1] | Ratio [2] |
| --- | --- | --- |
| O=C(Cc1cccs1)N[C@@H]1C(=O)N2C(C(=O)[O-])=C(C[n+]3ccccc3)CS[C@H]12 | 4.82 | 3.8 |
| C[C@H]1[C@H](NC(=O)/C(=N\OC(C)(C)C(=O)O)c2csc(N)n2)C(=O)N1S(=O)(=O)O |  | 0.084 |
| CC1(C)S[C@@H]2[C@H](NC(=O)[C@H](N)c3ccc(O)cc3)C(=O)N2[C@H]1C(=O)O |  | 9.4 |
| CO/N=C(\C(=O)N[C@@H]1C(=O)N2C(C(=O)O)=C(COC(N)=O)CS[C@H]12)c1ccco1 | 0.25 | 0.1 |
| CC(C)(O/N=C(\C(=O)N[C@@H]1C(=O)N2C(C(=O)[O-])=C(C[n+]3ccccc3)CS[C@H]12)c1csc(N)n1)C(=O)O | 0.0186 | 0.0038 |
| CO/N=C(\C(=O)N[C@@H]1C(=O)N2C(C(=O)O)=C(COC(C)=O)CS[C@H]12)c1csc(N)n1 | 6.77 | 0.5 |
| CC1(C)S[C@@H]2[C@H](NC(=O)Cc3ccccc3)C(=O)N2[C@H]1C(=O)O | 5.4 | 11.8 |
| CCN1CCN(C(=O)N[C@@H](C(=O)N[C@@H]2C(=O)N3[C@@H]2SC(C)(C)[C@@H]3C(=O)O)c2ccccc2)C(=O)C1=O |  | 8.4 |
